Where “and” joins values, the source holds several entries; their conditions need not be identical. Equal values may be shown once.
Columns and labels:
EZH1 = biological target: T1, EZH1 (Homo sapiens, UniProt Q92800); assay: Epigenetics selectivity panel (BPS Bioscience); assay type: biochemical
T1 construct: purchased DiscoverX KINOMEscan (kinases); BPS Bioscience (epigenetic targets)

GLP [1] = biological target: T2, GLP (Homo sapiens, UniProt Q9H9B1); assay: Epigenetics selectivity panel (BPS Bioscience); assay type: biochemical; settings: for IC50: chemiluminescence assay carried out at BPS
T2 construct: purchased BPS Bioscience (contract panel)
T2 sequence (Q9H9B1 1-1298): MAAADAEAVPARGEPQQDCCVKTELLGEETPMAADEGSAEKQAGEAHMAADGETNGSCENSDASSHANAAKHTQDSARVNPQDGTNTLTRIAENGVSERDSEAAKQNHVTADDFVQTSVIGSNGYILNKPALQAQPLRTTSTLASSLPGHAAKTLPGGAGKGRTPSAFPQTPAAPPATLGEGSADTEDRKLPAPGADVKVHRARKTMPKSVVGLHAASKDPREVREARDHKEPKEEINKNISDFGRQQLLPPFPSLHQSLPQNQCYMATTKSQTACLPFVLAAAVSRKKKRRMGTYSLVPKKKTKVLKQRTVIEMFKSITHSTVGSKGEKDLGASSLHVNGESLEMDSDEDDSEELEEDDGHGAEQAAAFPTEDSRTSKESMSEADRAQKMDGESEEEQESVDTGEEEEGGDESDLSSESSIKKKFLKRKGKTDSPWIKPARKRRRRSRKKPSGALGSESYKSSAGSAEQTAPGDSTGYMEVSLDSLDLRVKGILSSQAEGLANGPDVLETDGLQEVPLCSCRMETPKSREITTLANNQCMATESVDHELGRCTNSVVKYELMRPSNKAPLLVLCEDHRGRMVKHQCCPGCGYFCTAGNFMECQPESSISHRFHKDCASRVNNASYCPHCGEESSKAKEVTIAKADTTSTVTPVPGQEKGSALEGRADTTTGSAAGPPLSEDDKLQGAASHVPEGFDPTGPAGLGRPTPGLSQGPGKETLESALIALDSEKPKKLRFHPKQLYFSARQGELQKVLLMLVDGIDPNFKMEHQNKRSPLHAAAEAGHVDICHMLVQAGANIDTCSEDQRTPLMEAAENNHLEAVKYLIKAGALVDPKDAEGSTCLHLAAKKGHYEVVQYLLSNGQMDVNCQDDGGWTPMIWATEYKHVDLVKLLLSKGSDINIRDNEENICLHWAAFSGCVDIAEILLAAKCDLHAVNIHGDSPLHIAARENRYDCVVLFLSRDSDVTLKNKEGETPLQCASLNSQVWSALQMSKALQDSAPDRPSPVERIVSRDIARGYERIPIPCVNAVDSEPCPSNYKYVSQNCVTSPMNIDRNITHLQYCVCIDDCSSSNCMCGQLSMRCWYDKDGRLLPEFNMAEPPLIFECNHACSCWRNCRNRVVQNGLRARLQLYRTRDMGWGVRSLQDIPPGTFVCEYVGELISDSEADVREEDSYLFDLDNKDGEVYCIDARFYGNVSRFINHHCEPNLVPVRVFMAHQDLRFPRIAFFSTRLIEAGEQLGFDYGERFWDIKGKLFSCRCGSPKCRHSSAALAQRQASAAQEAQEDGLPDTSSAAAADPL

BRD2(BD1+BD2) = biological target: T3, BRD2(BD1+BD2) (Homo sapiens, UniProt P25440); assay: Epigenetics selectivity panel (BPS Bioscience); assay type: binding
T3 construct: purchased DiscoverX KINOMEscan (kinases); BPS Bioscience (epigenetic targets)
T3 sequence (P25440 65-459 limits assumed): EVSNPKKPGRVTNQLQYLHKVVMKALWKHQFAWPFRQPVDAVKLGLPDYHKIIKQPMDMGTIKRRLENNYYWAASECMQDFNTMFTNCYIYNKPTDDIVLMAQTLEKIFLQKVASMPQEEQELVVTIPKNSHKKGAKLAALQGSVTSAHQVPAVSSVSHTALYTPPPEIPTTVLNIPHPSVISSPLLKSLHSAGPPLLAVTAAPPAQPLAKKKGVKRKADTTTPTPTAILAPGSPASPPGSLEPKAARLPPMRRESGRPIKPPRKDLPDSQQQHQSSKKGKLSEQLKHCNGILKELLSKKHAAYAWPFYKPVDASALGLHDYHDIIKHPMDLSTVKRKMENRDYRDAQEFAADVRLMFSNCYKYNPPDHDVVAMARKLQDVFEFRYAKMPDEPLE

CREBBP = biological target: T4, CREBBP (Homo sapiens, UniProt Q92793); assay: Epigenetics selectivity panel (BPS Bioscience); assay type: binding
T4 construct: purchased DiscoverX KINOMEscan (kinases); BPS Bioscience (epigenetic targets)

Human HDAC1 = biological target: T5, Human HDAC1 (Homo sapiens, UniProt Q13547); assay: HDAC1 enzyme activity assay; assay type: biochemical
T5 construct: purchased DiscoverX KINOMEscan (kinases); BPS Bioscience (epigenetic targets)
T5 sequence (Q13547 whole entry): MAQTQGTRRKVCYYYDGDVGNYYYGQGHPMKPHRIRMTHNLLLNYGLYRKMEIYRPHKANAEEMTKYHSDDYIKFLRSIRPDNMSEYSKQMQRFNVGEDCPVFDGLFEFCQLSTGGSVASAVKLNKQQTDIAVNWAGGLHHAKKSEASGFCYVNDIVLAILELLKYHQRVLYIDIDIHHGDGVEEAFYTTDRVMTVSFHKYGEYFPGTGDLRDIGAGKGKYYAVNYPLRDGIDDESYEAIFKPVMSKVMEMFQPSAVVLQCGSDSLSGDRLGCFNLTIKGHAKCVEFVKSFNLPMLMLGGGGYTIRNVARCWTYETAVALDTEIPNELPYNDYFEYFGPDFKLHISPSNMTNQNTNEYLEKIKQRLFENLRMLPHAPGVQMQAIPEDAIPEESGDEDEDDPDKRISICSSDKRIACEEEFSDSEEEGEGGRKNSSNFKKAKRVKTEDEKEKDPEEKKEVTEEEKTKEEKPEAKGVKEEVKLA

H187 = assay: Cell proliferation assay (MTS); assay type: cell-based; settings: Homo sapiens, NCI-H187; SCLC
1205-LU = assay: Cell proliferation assay (MTS); assay type: cell-based; settings: Homo sapiens, Melanoma
GLP [2] = biological target: T2, GLP; assay: Radioligand binding assay (3H-SAM), Reaction Biology; assay type: biochemical
Procedure: The radioligand binding assay against G9a, DNMT1 and GLP was performed by Reaction Biology Corporation (http://www.reactionbiology.com).

H1299 = assay: Cell proliferation assay (MTS); assay type: cell-based; settings: Homo sapiens, NCI-H1299; NSCLC
HL-60 = assay: Cell proliferation assay (MTS); assay type: cell-based; settings: Homo sapiens, AML, 48 h
LSD1 = biological target: T6, LSD1 (Homo sapiens, UniProt O60341); assay: Epigenetics selectivity panel (BPS Bioscience); assay type: biochemical
T6 construct: purchased DiscoverX KINOMEscan (kinases); BPS Bioscience (epigenetic targets)

PRMT6 = biological target: T7, PRMT6 (Homo sapiens, UniProt Q96LA8); assay: Epigenetics selectivity panel (BPS Bioscience); assay type: biochemical
T7 construct: purchased BPS Bioscience (contract panel)
T7 sequence (Q96LA8 whole entry): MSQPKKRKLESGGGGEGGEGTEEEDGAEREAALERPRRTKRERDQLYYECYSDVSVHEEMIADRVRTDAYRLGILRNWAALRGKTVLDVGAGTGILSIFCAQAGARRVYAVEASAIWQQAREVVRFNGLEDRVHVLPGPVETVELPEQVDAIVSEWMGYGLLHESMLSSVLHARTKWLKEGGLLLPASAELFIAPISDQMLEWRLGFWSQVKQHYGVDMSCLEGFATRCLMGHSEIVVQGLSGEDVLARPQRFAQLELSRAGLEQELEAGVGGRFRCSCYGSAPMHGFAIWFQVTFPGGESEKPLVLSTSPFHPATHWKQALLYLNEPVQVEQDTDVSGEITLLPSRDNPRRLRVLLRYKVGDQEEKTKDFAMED

PRMT5 = biological target: T8, PRMT5 (Homo sapiens, UniProt O14744); assay: Epigenetics selectivity panel (BPS Bioscience); assay type: biochemical
T8 construct: purchased DiscoverX KINOMEscan (kinases); BPS Bioscience (epigenetic targets)
T8 sequence (O14744 whole entry): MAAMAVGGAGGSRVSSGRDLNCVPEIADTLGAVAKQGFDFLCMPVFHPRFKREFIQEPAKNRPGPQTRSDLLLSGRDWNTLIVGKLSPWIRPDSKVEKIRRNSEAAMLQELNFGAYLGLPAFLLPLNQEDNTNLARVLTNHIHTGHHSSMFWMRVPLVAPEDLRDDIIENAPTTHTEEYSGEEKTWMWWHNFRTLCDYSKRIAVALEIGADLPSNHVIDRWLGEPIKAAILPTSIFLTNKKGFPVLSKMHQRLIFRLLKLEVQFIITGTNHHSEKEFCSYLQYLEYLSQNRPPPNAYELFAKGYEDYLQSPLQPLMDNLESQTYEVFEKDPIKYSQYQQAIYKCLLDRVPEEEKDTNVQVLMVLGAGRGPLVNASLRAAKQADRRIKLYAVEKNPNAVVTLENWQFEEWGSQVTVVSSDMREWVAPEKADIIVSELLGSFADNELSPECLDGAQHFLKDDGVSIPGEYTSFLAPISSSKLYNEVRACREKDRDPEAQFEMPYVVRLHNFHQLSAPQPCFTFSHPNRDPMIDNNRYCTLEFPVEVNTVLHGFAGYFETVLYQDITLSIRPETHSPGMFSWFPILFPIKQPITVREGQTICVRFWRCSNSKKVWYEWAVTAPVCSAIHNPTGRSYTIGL
T8 sequence (Q9BQA1 whole entry partner): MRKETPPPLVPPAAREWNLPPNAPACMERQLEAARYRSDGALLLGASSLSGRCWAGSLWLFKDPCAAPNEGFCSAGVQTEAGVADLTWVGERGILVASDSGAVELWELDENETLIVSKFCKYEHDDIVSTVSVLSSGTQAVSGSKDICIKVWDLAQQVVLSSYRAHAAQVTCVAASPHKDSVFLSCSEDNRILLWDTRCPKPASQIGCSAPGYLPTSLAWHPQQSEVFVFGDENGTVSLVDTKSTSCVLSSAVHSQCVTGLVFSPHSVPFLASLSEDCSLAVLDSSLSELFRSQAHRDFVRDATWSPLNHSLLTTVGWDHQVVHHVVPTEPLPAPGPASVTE

MGH-U4 = assay: Cell proliferation assay (MTS); assay type: cell-based; settings: Homo sapiens; Bladder
PRMT1 = biological target: T9, PRMT1 (Homo sapiens, UniProt Q99873); assay: Epigenetics selectivity panel (BPS Bioscience); assay type: biochemical
T9 construct: purchased BPS Bioscience (contract panel)
T9 sequence (Q99873 whole entry): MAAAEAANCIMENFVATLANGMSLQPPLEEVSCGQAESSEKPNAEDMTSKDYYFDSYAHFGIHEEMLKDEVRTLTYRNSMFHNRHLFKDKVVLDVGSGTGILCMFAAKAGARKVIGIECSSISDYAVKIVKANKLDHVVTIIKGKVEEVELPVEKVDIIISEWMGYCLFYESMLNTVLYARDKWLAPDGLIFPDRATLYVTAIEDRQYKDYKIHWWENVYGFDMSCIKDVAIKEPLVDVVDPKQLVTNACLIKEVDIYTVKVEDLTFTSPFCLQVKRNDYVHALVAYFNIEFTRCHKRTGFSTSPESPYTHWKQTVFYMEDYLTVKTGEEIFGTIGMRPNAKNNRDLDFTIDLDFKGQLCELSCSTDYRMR

JMJD1A = biological target: T10, JMJD1A (Homo sapiens, UniProt Q9Y4C1); assay: Epigenetics selectivity panel (BPS Bioscience); assay type: biochemical
T10 construct: purchased DiscoverX KINOMEscan (kinases); BPS Bioscience (epigenetic targets)
T10 sequence (Q9Y4C1 whole entry): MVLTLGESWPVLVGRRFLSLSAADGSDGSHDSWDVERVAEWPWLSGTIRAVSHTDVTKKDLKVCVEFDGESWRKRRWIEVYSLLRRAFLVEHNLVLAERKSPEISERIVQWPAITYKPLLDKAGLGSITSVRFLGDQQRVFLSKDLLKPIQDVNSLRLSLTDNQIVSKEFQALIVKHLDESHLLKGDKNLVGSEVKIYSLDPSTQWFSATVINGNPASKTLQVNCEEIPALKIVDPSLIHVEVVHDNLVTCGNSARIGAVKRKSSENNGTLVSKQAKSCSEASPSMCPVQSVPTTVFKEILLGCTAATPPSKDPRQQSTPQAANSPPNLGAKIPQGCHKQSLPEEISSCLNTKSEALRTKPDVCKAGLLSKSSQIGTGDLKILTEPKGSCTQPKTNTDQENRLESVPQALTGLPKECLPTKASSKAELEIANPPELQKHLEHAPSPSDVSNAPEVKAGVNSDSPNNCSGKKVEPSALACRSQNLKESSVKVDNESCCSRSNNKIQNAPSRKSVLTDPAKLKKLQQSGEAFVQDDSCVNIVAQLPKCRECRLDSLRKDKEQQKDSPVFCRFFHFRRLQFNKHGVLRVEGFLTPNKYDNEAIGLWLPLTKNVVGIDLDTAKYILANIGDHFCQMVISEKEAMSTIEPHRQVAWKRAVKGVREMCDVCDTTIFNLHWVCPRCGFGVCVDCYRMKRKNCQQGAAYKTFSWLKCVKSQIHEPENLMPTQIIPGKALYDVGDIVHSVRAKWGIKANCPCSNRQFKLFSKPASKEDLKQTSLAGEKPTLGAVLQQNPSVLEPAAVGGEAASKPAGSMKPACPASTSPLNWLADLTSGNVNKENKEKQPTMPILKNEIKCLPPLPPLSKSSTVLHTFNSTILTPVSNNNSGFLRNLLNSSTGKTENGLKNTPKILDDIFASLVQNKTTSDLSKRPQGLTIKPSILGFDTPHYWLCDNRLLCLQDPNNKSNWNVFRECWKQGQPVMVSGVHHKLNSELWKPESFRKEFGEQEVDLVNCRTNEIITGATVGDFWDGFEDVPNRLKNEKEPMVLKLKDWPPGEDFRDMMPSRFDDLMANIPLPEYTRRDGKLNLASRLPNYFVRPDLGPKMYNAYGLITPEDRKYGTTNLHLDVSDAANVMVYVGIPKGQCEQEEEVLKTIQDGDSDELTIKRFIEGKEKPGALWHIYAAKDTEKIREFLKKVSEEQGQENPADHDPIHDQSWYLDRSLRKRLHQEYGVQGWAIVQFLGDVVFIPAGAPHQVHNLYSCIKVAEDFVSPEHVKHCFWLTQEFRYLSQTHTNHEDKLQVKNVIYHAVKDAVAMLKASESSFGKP

PRMT4 = biological target: T11, PRMT4 (Homo sapiens, UniProt Q86X55); assay: Epigenetics selectivity panel (BPS Bioscience); assay type: biochemical
T11 construct: purchased DiscoverX KINOMEscan (kinases); BPS Bioscience (epigenetic targets)
T11 sequence (Q86X55 whole entry): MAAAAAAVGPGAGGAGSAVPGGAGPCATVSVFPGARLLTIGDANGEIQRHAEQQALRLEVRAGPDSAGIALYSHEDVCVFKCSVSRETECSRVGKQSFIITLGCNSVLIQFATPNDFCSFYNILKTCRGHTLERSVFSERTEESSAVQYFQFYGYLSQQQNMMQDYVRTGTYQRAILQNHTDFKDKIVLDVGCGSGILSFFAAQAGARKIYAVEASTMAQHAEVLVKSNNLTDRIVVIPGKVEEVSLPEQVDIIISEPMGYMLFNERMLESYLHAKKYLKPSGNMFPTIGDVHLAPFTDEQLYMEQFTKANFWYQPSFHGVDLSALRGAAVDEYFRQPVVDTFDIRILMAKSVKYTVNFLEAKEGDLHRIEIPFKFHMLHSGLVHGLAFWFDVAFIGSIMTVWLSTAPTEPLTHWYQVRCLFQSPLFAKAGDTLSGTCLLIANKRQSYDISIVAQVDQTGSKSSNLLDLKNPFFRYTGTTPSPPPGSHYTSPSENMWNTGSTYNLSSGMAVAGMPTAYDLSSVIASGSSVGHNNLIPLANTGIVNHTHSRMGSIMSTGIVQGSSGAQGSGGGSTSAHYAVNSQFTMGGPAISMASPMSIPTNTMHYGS

OPM2 = assay: Cell proliferation assay (MTS); assay type: cell-based; settings: Homo sapiens, OPM-2; MM
U87-MG = assay: Cell proliferation assay (MTS); assay type: cell-based; settings: Homo sapiens, U-87 MG; Glioblastoma
MM1.R = assay: Cell proliferation assay (MTS); assay type: cell-based; settings: Homo sapiens, MM.1R
DU145 = assay: Cell proliferation assay (MTS); assay type: cell-based; settings: Homo sapiens, DU-145; Prostate
H358 = assay: Cell proliferation assay (MTS); assay type: cell-based; settings: Homo sapiens, NCI-H358; NSCLC
CAKI-2 = assay: Cell proliferation assay (MTS); assay type: cell-based; settings: Homo sapiens, Renal
MOLT-4 = assay: Cell proliferation assay (MTS); assay type: cell-based; settings: Homo sapiens, ALL, 48 h
A549 = assay: Cell proliferation assay (MTS); assay type: cell-based; settings: Homo sapiens, NSCLC
SK-MEL-19 = assay: Cell proliferation assay (MTS); assay type: cell-based; settings: Homo sapiens, SK-MEL19; Melanoma

| Structure (SMILES) | inhibition at 10 µM (EZH1) | IC50 (GLP [1]) | inhibition at 10 µM (BRD2(BD1+BD2)) | inhibition at 10 µM (CREBBP) | inhibition at 10 µM (Human HDAC1) | GI50 (H187) | GI50 (1205-LU) | IC50 (GLP [2]) | GI50 (H1299) | GI50 (HL-60) | inhibition at 10 µM (LSD1) | inhibition at 10 µM (PRMT6) | inhibition at 10 µM (PRMT5) | GI50 (MGH-U4) | inhibition at 10 µM (PRMT1) | inhibition at 10 µM (JMJD1A) | inhibition at 10 µM (PRMT4) | GI50 (OPM2) | GI50 (U87-MG) | GI50 (MM1.R) | other results |
| --- | --- | --- | --- | --- | --- | --- | --- | --- | --- | --- | --- | --- | --- | --- | --- | --- | --- | --- | --- | --- | --- |
| COc1cc2c(NC3CCN(C)CC3)cc(-c3ccc(C)o3)nc2cc1OCCCN1CCCC1 [CM-272, 6-methoxy-2-(5-methyl-2-furyl)-N-(1-methyl-4-piperidyl)-7-(3-pyrrolidin-1-ylpropoxy)quinolin-4-amine] | 6% | 2 nM | 0% | 5% | 0% | 1640 nM | 121 nM | 7 nM | 1060 nM | 2900 nM | 0% | 82% | 6% | 725 nM | 73% | 8% | 5% | 2610 nM | 294 nM | 980 nM | % Inhibition at 10 μM: GLP (GLP [1]; 10 µM): 100% and 75%; IC50 (PRMT6; BPS): 3000 nM; IC50 (PRMT1; BPS): 4000 nM; GI50 (DU145): 762 nM; GI50 (H358): 644 nM; GI50 (CAKI-2): 2920 nM; GI50 (MOLT-4): > 5000 nM; GI50 (A549): 937 nM; GI50 (SK-MEL-19): 1040 nM |
| COc1cc2c(NCC3CCN(C)CC3)cc(-c3ccc(C)o3)nc2cc1OCCCN1CCCC1 [CM-579, 6-methoxy-2-(5-methyl-2-furyl)-N-[(1-methyl-4-piperidyl)methyl]-7-(3-pyrrolidin-1-ylpropoxy)quinolin-4-amine] | 17% | > 10000 nM | 0% | 0% | 0% | 1970 nM | 20 nM | 67 nM | 547 nM | > 10000 nM | 24% | 40% | 0% | 173 nM | 43% | 6% | 6% | > 5000 nM | 118 nM | 2110 nM | GI50 (DU145): 223 nM; GI50 (H358): 197 nM; GI50 (CAKI-2): 304 nM; GI50 (MOLT-4): > 10000 nM; GI50 (A549): 122 nM; GI50 (SK-MEL-19): 161 nM |
